Here are results for one compound from patent US12173029B2, “Antiviral prodrugs, pharmaceutical formulations, and methods” (priority 2020, dated 2024).

SMILES strings stand for the structures.

A short description of data set [1]: Example 7 cytotoxicity, summary across all cell lines. Particulars: monkey, human; five cell types of Example 7, 48 hours. In kind it is cell-based. Here is the method: The cytotoxicity of each compound by incubating each of these cell lines with serial dilutions of each compound from 1.23 μM to 100 μM for 48 hours. […] The selectivity index of ODBG-P-RV ranged from 295 to 699 in the five cell types tested in this example).

The subject of a further data set is Human Coronavirus 229E. The experiment in a line: Example 8 human coronavirus 229E in MRC-5 cells (CPE, MTT). The format is cell-based. Here is the method:
Human Coronavirus 229E (ATCC) was propagated and infectious units quantified by TCID50 using MRC-5 cells. For antiviral testing, approximately 10^4 MRC-5 cells were seeded per well in EMEM (10% FCS) at 37 C in a 96 well plate overnight. Medium from each well was removed and cells were infected with 100 TCID50 virus in 100 μL medium for two hours.
Cells were washed one time with medium and then compounds or controls added at the indicated concentrations. After three days, CPE was observed under microscope and quantified using an MTT cell proliferation assay kit (Abcam) read on an ELx800, Universal Microplate reader (BIO-TEK Instruments, INC). The % Inhibition was calculated as (Atv−Acv)/(Acd−Acv)×100% where Atv indicates the absorbance of the test compounds with virus infected cells and A, and Aca indicate the absorbance of the virus control and the absorbance of the cell control, respectively. The average half-maximal effective concentration (EC50) was defined as the concentration which achieved 50% inhibition of virus-induced cytopathic effects.
FIG. 4A and FIG. 4B: ODBG-P-RVn (15d) inhibits the human Alphacoronavirus 229E. […] Cells were infected with 229E for 2 hours followed by treatment with the indicated dose of the indicated drug for 72 hours. The relative CPE was determined by measuring cell viability using an MTT assay.

A short description of data set [2]: Example 7 cell viability assay (CellTiter-Glo) in Huh7.5 cells. Particulars: human. In general terms: ATP-based viability assays read luminescence as a measure of living cells.
Data set [3] is described as follows: Example 7 cell viability assay (CellTiter-Glo) in PSC-human lung cells.
For data set [4] the following is noted: after intravenous infusion; cited from earlier work.
Data set [5] deals with SARS-CoV-2 isolate USA-WA1/2020. The experiment in a line: Example 7 SARS-CoV-2 infection in Calu-3 cells (qRT-PCR). The format is cell-based. As to conditions: Severe acute respiratory syndrome coronavirus 2; SARS-CoV-2, Calu-3 cells, MOI 0.01, 48 hours. On the technique in general: In qPCR the cycle at which signal appears reflects the starting amount.
Data set [6] concerns USA WA-01 strain of SARS CoV-2. The experiment in a line: Example 2 anti-coronavirus activity in Vero E6 cells (qPCR spike RNA). In kind it is cell-based. Particulars: Vero C1008, SARS CoV-2 USA WA-01, Vero E6 cells, MOI 0.1, 48 hours. Here is the method: Ten thousand Vero E6 cells were seeded in 100 microliters of culture medium in 96 well plates. The following day serial two-fold dilutions of antiviral compounds or the DMSO-containing vehicle were added to each well. The USA WA-01 strain of SARS CoV-2 was added to each well at a multiplicity of infection of 0.1 thirty minutes later. Cells were incubated for 48 hours, washed twice in PBS and lysed with TRIzol. RNA was extracted using Directzol micro RNA columns. RNA was made into cDNA and assayed for the SARS CoV-2 spike protein and for a housekeeping gene (RPLPO) RNA by qPCR. Data represents the average of duplicate wells. Cellular cytotoxicity was also measured in VERO E6 cells. […] Cytotoxicity (CC50) was assessed using a commercially available MTT assay.

Data set [7] concerns SARS-CoV-2 isolate USA-WA1/2020. The experiment in a line: Example 7 SARS-CoV-2 infection in Caco-2 cells (qRT-PCR). In kind it is cell-based. As to conditions: Severe acute respiratory syndrome coronavirus 2; SARS-CoV-2, Caco-2 cells, MOI 0.01, 48 hours.
The test system is the same in data set [8]. The experiment in a line: Example 7 SARS-CoV-2 infection in PSC-human lung cells (qRT-PCR). In kind it is cell-based. As to conditions: Severe acute respiratory syndrome coronavirus 2; SARS-CoV-2, PSC-human lung cells, MOI 0.01, 48 hours.
For data set [9] the test system is unchanged. The experiment in a line: Example 3 SARS-CoV-2 infection in Vero E6 cells (qRT-PCR Spike RNA). As to conditions: Severe acute respiratory syndrome coronavirus 2, Vero C1008; SARS-CoV-2 USA-WA1/2020, Vero E6 cells, MOI 0.01, 48 hours, mean±SD. In kind it is cell-based.
A short description of data set [10]: Example 8 cytotoxicity in MRC-5 cells (CellTiter-Glo). In kind it is cell-based. As to conditions: human. The protocol: FIG. 4B depicts the cytotoxicity in MRC-5 cells incubated in the presence of the indicated drug at the indicated concentration for 72 hours, after which cell viability was measured by the CellTiter-Glo assay. Data points indicate the averages from 3 independent experiments performed in duplicate. Error bars represent the standard error mean (SEM).

A short description of data set [11]: Example 7 cell viability assay (CellTiter-Glo) in Vero E6 cells. As to conditions: monkey.
The subject of data set [12] is SARS-CoV-2 isolate USA-WA1/2020. The experiment in a line: Example 7 SARS-CoV-2 infection in Huh7.5 cells (qRT-PCR). The format is cell-based. Particulars: Severe acute respiratory syndrome coronavirus 2; SARS-CoV-2, Huh7.5 cells, MOI 0.01, 48 hours, qRT-PCR, Example 7.
The next data set concerns SARS-CoV-2. The experiment in a line: Example 7 SARS-CoV-2 antiviral activity, summary across the five cell types. In kind it is cell-based. As to conditions: Severe acute respiratory syndrome coronavirus 2; SARS-CoV-2, five cell types of Example 7; read-out: EC50, range across cell types.
The test system of another data set is VERO E6 cells. The experiment in a line: Example 4 generation of remdesivir triphosphate in Vero E6 cells (LC/MS/MS). The format is in vitro ADME, monkey. Particulars: 1 μM drug, at 8 and 24 hours. Here is the method:
In this example, Vero E6 cells were plated in 6 well plates at about 3.4×10^5 cells per well in 2 mL of media (DMEM, 10% FBS).
Cells were then incubated at 37° C. for 24 hours. Media was then aspirated and replaced with 2 ml of control media (fresh Dulbecco's Modified Eagle's Medium (DMEM), 10% FBS) or 2 mL of media with drug at a concentration of 1 μM. Cell were incubated with the various drugs for 48 hours. The media was aspirated, the cells rinsed twice with phosphate-buffered saline (PBS), trypsinized for 5 minutes with 1 mL ATV, triturated and removed to a 15 mL centrifuge tube, rinsed with 1 mL PBS, which was also then removed to the 15 mL centrifuge tube, and the cells were triturated again. Cells were counted in a Reichert hemocytometer using two 10 μL samples, and the number of cells in each sample was determined.
Cells were centrifuged at 1200 rpm for 10 minutes, diluent aspirated and the pellet resuspended in 250 μL of methanol/distilled water (70/30) and analyzed by LC/MS/MS. The results, which are depicted at FIG. 3, were in picomoles/10^6 cells and are the average of two or three determinations.

What is called CC50 is the concentration giving 50% cytotoxicity. Broadly, the EC50 is the concentration that produces a half-maximal response. A word on the EC90: it is the concentration needed for an effect of 90%. `CCC(CC)COC(=O)[C@H](C)N[P@](=O)(OC[C@H]1O[C@@](C#N)(c2ccc3c(N)ncnn23)[C@H](O)[C@@H]1O)Oc1ccccc1` [RDV, Remdesivir]: the CC50 at 48 h in data set [1] is no less than 15.2 µM. Further, the half-maximal effective concentration (EC50) with Human Coronavirus 229E (MRC5, 229E in MRC-5 cells, 72 hours, CPE by MTT, Example 8) was determined as 0.04 µM; in data set [5], 0.23 µM; in [6] it was 3.16 µM; in [7], 0.17 µM; in data set [8], 0.14 µM; in data set [9], 4.6 µM. The results for the EC50 (in data set [12]; in the data set on SARS-CoV-2) were 0.06 µM and 0.06 to 1.13 µM, respectively. The EC90 in the data set on Human Coronavirus 229E (MRC5, 72 h) is 0.26 µM; in data set [5], 0.31 µM; in data set [6] it was 5.5 µM; in data set [7], 0.28 µM; in data set [8], 0.23 µM; in [9] it was 8.9 ± 4.9 µM. Also, the EC90 in data set [12] was determined as 0.12 µM. Moreover, the CC50 at 48.5 h was 15.2 µM in data set [2], 32.7 µM in data set [3] and 101 µM in [11]. For the same compound, in data set [4], the “persistence in plasma at virologically significant levels” value is on record as “less than 2 hours”. In addition, the CC50 at 72 h in [10] was greater than 50 µM. Moreover, in the data set on VERO E6 cells, the “levels of RVn-TP” value is listed as “below the level of quantification”.
